Experimental data reported in the OPERA property sets (Mansouri et al. 2018).

SMILES	logP
Nc1ncnc2nc(-c3cccc([N+](=O)[O-])c3)[nH]c12	1.93
CC(=O)C(C#N)=NNc1ccc([N+](=O)[O-])cc1[N+](=O)[O-]	3.4
CC1CN(N=O)CC(C)N1N=O (stereo not drawn)	0.08
CC(=O)C(C#N)=NNc1ccc2c(c1)OC(F)(F)C(F)(F)O2	5.31
CN1CCN=C1Nc1ncc([N+](=O)[O-])s1	1.8
Cc1noc(-c2ccccn2)n1	0.89
COc1cc(C)n(-c2cc(C)nc(C)n2)n1	2.6
COCCOc1c(OC)cc(Cc2cnc(N)nc2N)cc1OC	0.56
O=C(O)Cc1ccc(OCc2ccccc2)cc1	2.72
Clc1ccc(Cl)c(-c2cc(Cl)cc(Cl)c2Cl)c1	6.79
Nc1nc(N)nc(-c2cc(Br)ccc2Cl)n1	2.04
CNC(=O)ON=Cc1ccc(Cl)cc1	2.27
CCCOn1c(=O)[nH]c(CCC)c(Br)c1=O	1.73
O=C(O)Cc1ccc(OCc2ccccc2)c(Br)c1	3.51
COc1c(N(C)C)cc(Cc2cnc(N)nc2N)cc1N(C)C	2.05
O=C1C=CC(=NO)c2ccccc21	2.27
O=S1(=O)NC(c2cccs2)=Nc2ccccc21	1.68
COc1cc(CC(C)N)c(OC)cc1Br (stereo not drawn)	2.58
CCCCCCCCCCCCS(=O)(=O)[O-].[Na+]	0.96
Oc1cc(Cl)c(NC2=NCCN2)c(Cl)c1	1.52
O=NN(CCCl)C(=O)NC(CCC(=O)O)C(=O)O (stereo not drawn)	0.6
CN(C)C1=NC(=O)C(=Cc2ccc([N+](=O)[O-])o2)S1	1.14
CSc1nnc(C2CCCCC2)c(=O)n1N	2.14
COc1cc(CC(=O)O)ccc1OCc1ccccc1	2.59
CN(C)c1nnc(-c2ccccc2)c2ccccc12	3.22

SMILES	logP
CCOc1ccc(OC(C)=O)cc1	1.95
COc1ccc(N=NN(C)C(C)=O)cc1	2.61
O=S1(=O)NC(C2CC=CCC2)=Nc2ccccc21 (stereo not drawn)	2.05
COc1ccc(Br)c(Cc2cnc(N)nc2N)c1	2
CS(=O)(=O)c1ccc(NS(=O)(=O)C(F)(F)F)cc1	1.99
O=C(c1ccncc1)c1ccc([N+](=O)[O-])cc1	1.76
CCC[n+]1cccc2ccccc21.[Br-]	-2.52
CCN(CC)CCNC(=O)c1cc(Br)ccc1OC	3.2
CC1(C)N=C(N)N=C(N)N1c1ccc(I)cc1	1.39
OCC1OC(Oc2ccc(I)c(OC3OC(CO)C(O)C(O)C3O)c2I)C(O)C(O)C1O (stereo not drawn)	-1.31
CC(=O)Nc1cc2c(cc1Cl)S(=O)(=O)NC(C)=N2	0.53
O=C(CNC(=O)c1ccccc1)Oc1ccc(F)cc1	2.46
C#CCOn1c(=O)[nH]c(C)c(Br)c1=O	-0.1
CCCCCC[n+]1cc(C)cc(C)c1.[I-]	-1.19
CCc1cnc(C=Cc2ccc([N+](=O)[O-])o2)nc1	1.55
Cc1cc(C)cc(OC2OC(CO)C(O)C(O)C2O)c1 (stereo not drawn)	0.26
COP(=O)(NC(C)(C)C)SC (stereo not drawn)	0.96
O=NN(CCCl)C(=O)NC12CC3CC(CC(C3)C1)C2	3.56
CCC(=O)Nc1n[nH]c(NC(=O)CC)n1	0.07
CC(=O)c1ccccc1NC(=O)C(Cl)Cl	2.65
COC(=O)C(C#N)=NNc1ccc(C(F)(F)F)cc1	3.79
COc1cc(Cc2cnc(N)nc2N)cc(OC)c1C#N	1.39
CC(C)CC1=Nc2cc(Cl)ccc2S(=O)(=O)N1	2.35
CCCCOC(=O)N(CCCC)SN(C)C(=O)ON=C(C)SC	4.2
CCCCCCCCCC[n+]1cc(C)cc(C)c1.[I-]	0.76

SMILES	logP
Cc1ccc(C(C)C)c(OC2OC(CO)C(O)C(O)C2O)c1 (stereo not drawn)	1.07
COc1cc(Cc2cnc(N)nc2N)cc2c1OCO2	1.38
NS(=O)(=O)c1ccc2c(c1)S(=O)(=O)NC(Cc1ccccc1)N2 (stereo not drawn)	1.03
CCc1cc(=O)n2c(C)cccc2n1	1.59
CN(C)/N=N/c1[nH]ncc1C(N)=O	-0.12
COC(=O)C1(n2ccnc2[N+](=O)[O-])CC(OC(C)=O)C(NC(C)=O)C(C(OC(C)=O)C(COC(C)=O)OC(C)=O)O1 (stereo not drawn)	0.41
CC(=O)N(CC(O)CO)c1c(I)c(C(=O)NCC(O)CO)c(I)c(C(=O)NCC(O)CO)c1I (stereo not drawn)	-3.05
COC(=O)C(C#N)=NNc1ccc(SC(F)(F)F)cc1	4.3
Nc1ccc(I)cc1C(=O)O	2.06
O=C(O)CCCCCn1nnc2ccccc21	0.86
CSc1ccc(NS(=O)(=O)C(F)(F)F)cc1	3.74
CCC1(CC)SCC(=O)NC1=O	1.52
c1ccc(-c2ncnc3ccccc23)cc1	2.71
Clc1cc(Cl)c(N=C2NCCN2)cc1Cl	2.11
CC1(C)SC2C(NC(=O)C(Cl)c3ccccc3)C(=O)N2C1C(=O)O (stereo not drawn)	2.3
CCOc1cc(Cc2cnc(N)nc2N)cc(OCC)c1C(=O)CS(C)(=O)=O	0.79
COC12C(COC(N)=O)C3=C(C(=O)C(C)=C(Nc4nccs4)C3=O)N1CC1NC12 (stereo not drawn)	0.62
O=[N+]([O-])c1nccn1CCS(=O)(=O)c1ccccc1	0.52
COc1cc(Cc2cnc(N)nc2N)cc(OCc2ccccc2)c1OCc1ccccc1	4.09
CNC(=O)Oc1ccc(C(C)(C)C)c(C)c1	3.38
CN(C)C(=O)Nc1ccc(Br)cc1	2.19
S=C=NCc1ccc2ccccc2c1	4.42
COc1ncnc2ccccc12	1.97
